Reference: publication PMC11555526, “Development of 2-Aminoadenine-Based Proteolysis-Targeting Chimeras (PROTACs) as Novel Potent Degraders of Monopolar Spindle 1 and Aurora Kinases” (ACS Pharmacology & Translational Science, 2024)

Molecular target: T1, AURKA (Homo sapiens, UniProt O14965)
T1 construct: endogenous in cells; host or cells: MV4-11 HiBiT-TTK cells (AURKA not transduced)
T1 sequence (O14965 1-403): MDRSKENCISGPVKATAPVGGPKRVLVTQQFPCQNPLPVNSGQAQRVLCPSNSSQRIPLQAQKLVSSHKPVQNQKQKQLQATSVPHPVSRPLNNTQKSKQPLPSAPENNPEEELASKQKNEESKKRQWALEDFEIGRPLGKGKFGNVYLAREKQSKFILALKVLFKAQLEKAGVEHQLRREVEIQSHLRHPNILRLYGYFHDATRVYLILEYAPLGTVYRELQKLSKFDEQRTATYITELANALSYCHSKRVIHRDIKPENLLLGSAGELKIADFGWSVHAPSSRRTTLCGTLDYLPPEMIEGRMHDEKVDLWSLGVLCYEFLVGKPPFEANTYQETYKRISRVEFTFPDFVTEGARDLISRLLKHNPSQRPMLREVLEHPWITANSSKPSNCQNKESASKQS
Test: Immunoblot of AURKA in HiBiT-TTK cells
Assay type: cell-based
Settings: 6 h
Procedure: The cells were treated with compounds or vehicle for indicated time points and lysed in RIPA lysis buffer (50 mM HEPES pH 7.9, 140 mM NaCl, 1 mM EDTA, 1% Triton X-100, 0.1% SDS, 0.1% sodium deoxycholate) containing protease and phosphatase inhibitors (Sigma) for 20 min at 4 °C. Cell lysates were cleared by centrifugation, and protein concentration was determined with bicinchoninic acid assay. Equal amounts of protein per sample were separated by Bis-Tris-PAGE and transferred to PVDF membranes (Millipore). The membranes were blocked with 5% (w/v) nonfat dry milk in TBS-T [20 mM Tris–HCl, pH 7.5, 150 mM NaCl, 0.1% (v/v) Tween-20] for 1 h at room temperature and incubated with primary antibody at 4 °C overnight. Visualization was carried out using horseradish peroxidase (HRP)-labeled secondary antibodies and detected using a chemiluminescent HRP substrate (Millipore) in LAS3000 or LAS4000 mini (Fujifilm). Vinculin, GAPDH, or B-actin were used as a loading control. […] The signal was quantified using ImageJ or Image Studio Lite against the corresponding loading controls. […]
Figure S2: Cellular degradation studies of SF1-based compounds. […] Indicated MV4-11 HiBiT cells were treated with different concentrations of 15 (B), and 28 (C) for 6 h, lysed, complemented with the large luciferase fragment (largeBiT), and luciferase 27 (A), activity was measured. […]

## Cc1ncsc1-c1ccc(CNC(=O)[C@@H]2C[C@@H](O)CN2C(=O)[C@@H](NC(=O)COCCOCC(=O)N2CCN(c3ccc(Nc4nc(Nc5ccccc5S(=O)(=O)C(C)C)c5nc[nH]c5n4)cc3)CC2)C(C)(C)C)cc1 [Compound 49]
0.16 µM
  relative AURKA level (immunoblot quantification, vehicle = 1.00): 1.00
10 µM
  relative AURKA level (immunoblot quantification, vehicle = 1.00): 0.87
